Results published in ChEMBL document CHEMBL5120772, “Discovery of ASP5878: Synthesis and structure-activity relationships of pyrimidine derivatives as pan-FGFRs inhibitors with improved metabolic stability and suppressed hERG channel inhibitory activity” (Bioorg Med Chem, 2022).
Each block holds one compound with its values, some of them ahead of it.

How the values were obtained:
[1] = Intrinsic clearance in human liver microsomes
[2] = target: Voltage-gated inwardly rectifying potassium channel KCNH2 (Homo sapiens, UniProt Q12809); assay: Inhibition of hERG channel expressed in CHO cells at -80 mV holding potential by Qpatch clamp method
Chain of Voltage-gated inwardly rectifying potassium channel KCNH2 (Q12809 whole entry): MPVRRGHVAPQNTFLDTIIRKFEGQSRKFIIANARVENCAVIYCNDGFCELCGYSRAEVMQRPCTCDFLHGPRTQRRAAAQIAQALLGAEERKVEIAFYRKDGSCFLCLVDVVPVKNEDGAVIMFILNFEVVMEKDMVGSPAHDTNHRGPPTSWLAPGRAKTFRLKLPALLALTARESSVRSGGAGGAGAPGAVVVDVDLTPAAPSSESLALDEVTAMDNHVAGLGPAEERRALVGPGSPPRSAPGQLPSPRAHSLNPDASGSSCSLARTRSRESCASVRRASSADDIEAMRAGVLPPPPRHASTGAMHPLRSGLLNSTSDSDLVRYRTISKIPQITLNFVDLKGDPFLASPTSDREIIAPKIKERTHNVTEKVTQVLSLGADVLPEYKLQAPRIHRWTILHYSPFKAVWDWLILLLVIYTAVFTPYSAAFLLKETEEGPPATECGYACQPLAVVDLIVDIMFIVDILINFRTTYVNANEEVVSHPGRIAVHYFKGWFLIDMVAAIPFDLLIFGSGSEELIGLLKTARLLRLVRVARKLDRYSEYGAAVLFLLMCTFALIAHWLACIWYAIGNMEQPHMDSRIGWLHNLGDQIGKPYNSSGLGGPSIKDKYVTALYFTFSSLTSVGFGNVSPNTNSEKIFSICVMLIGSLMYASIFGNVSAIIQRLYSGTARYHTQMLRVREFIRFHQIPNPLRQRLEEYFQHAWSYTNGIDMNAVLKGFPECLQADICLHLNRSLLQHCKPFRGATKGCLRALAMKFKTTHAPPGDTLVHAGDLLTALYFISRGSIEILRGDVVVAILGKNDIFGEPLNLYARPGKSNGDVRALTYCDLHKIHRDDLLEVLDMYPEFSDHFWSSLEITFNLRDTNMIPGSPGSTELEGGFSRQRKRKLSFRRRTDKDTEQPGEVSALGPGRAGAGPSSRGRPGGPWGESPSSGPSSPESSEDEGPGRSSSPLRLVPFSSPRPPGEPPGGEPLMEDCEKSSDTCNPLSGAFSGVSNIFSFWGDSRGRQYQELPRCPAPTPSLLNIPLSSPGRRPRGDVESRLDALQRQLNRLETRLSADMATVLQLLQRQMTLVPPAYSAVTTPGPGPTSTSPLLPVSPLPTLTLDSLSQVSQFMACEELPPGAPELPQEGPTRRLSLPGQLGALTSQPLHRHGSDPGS

[3] = tested on: NIH3T3; assay: Cytotoxicity against mouse NIH/3T3 cells overexpressing FGFR3 S249C assessed as cell growth inhibition incubated for 5 days by CellTitre-Glo assay; conditions: NIH3T3, 120 h
[4] = Lipophilicity, logD of the compound in 1-octanol and phosphate buffer at pH 7.4 by LC-MS analysis
[5] = Permeability of the compound in aqueous buffer at pH 6.5 incubated for 2 hrs by PAMPA based HPLC analysis
[6] = Plasma concentration in ICR mouse at 30 mg/kg, po measured after 6 hrs of administration by LC-MS/MS analysis; type: ADME, organism-based
[7] = animal or person; conditions: Mus musculus, Balb/c, NIH3T3, po, 6 h, read-out: INH
[8] = Ratio of drug concentration in brain to plasma (Kp,brain) in Sprague-Dawley rat at 1 mg/kg, po measured after 1 hr
[9] = Ratio of drug concentration in brain to plasma (Kp,brain) in Sprague-Dawley rat at 1 mg/kg, po measured after 4 hrs
[10] = Ratio of drug concentration in brain to plasma (Kp,brain) in Sprague-Dawley rat at 1 mg/kg, po measured after 24 hrs
[11] = target: Fibroblast growth factor receptor 3 (Homo sapiens, UniProt P22607); assay: Inhibition of wild type N-terminal GST tagged FGFR3 (436 to 806 residues) (unknown origin) expressed in sf21 insect cells preincubated for 30 mins followed by substrate addition and measured after 30 mins in presence of ATP by off-chip mobility shift assay
Chain of Fibroblast growth factor receptor 3 (P22607 whole entry, the tested form may be a part): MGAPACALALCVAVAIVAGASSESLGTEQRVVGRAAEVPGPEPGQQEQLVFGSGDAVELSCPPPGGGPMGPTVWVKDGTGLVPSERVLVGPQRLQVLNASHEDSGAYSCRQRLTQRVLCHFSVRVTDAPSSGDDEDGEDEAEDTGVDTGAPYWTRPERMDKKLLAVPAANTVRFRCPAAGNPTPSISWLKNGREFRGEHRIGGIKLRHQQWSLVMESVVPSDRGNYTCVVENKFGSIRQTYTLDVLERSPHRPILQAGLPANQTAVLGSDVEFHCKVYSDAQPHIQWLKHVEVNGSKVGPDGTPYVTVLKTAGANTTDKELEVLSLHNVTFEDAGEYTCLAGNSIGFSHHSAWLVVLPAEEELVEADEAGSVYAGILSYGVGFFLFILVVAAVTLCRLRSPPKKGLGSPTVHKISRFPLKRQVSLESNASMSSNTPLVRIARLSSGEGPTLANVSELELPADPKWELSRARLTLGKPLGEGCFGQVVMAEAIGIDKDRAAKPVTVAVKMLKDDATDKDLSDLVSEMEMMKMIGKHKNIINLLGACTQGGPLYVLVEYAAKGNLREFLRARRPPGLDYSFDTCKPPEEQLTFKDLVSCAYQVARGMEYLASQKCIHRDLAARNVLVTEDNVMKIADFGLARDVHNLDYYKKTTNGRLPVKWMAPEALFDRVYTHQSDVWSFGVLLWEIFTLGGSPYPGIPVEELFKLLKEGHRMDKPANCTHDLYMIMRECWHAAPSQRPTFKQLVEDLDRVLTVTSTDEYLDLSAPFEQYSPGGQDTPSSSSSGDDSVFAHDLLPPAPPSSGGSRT

[12] = Volume of distribution at steady state in Sprague-Dawley rat at 0.3 mg/kg, iv measured up to 24 hrs by LC-MS/MS analysis; conditions: in vivo
[13] = Volume of distribution at steady state in Beagle dog at 0.1 mg/kg, iv measured up to 72 hrs by LC-MS/MS analysis; conditions: in vivo
[14] = Half-life in Sprague-Dawley rat at 0.3 mg/kg, iv measured up to 24 hrs by LC-MS/MS analysis; conditions: in vivo
[15] = Half-life in Beagle dog at 0.1 mg/kg, iv measured up to 72 hrs by LC-MS/MS analysis; conditions: in vivo
[16] = AUCinfinity in Sprague-Dawley rat at 0.3 mg/kg, iv measured up to 24 hrs by LC-MS/MS analysis; conditions: in vivo
[17] = AUCinfinity in Beagle dog at 0.1 mg/kg, iv measured up to 72 hrs by LC-MS/MS analysis; conditions: in vivo
[18] = AUCinfinity in Sprague-Dawley rat at 0.3 mg/kg, po measured upto 24 hrs by LC-MS/MS analysis; conditions: in vivo
[19] = AUCinfinity in Beagle dog at 0.1 mg/kg, po measured upto 72 hrs by LC-MS/MS analysis; conditions: in vivo
[20] = target: T1, hERG (Homo sapiens, UniProt Q12809); assay: Inhibition of hERG in HEK293 cells assessed as mean compensated suppression rate at 3 uM incubated for 13 mins by whole cell patch clamp assay relative to control; conditions: HEK293 cells expressing hERG
T1 sequence (Q12809 whole entry): as the sequence (Q12809 whole entry) above

[21] = target: T1, hERG; assay: Inhibition of hERG in HEK293 cells assessed as mean compensated suppression rate at 1 uM incubated for 13 mins by whole cell patch clamp assay relative to control; conditions: HEK293 cells expressing hERG
[22] = target: T1, hERG; assay: Inhibition of hERG in HEK293 cells assessed as mean compensated suppression rate at 10 uM incubated for 13 mins by whole cell patch clamp assay relative to control; conditions: HEK293 cells expressing hERG
[23] = dog, in vivo, po, 10 mg/kg, 72 h
[24] = dog, in vivo, po, 100 mg/kg, 72 h
[25] = dog, in vivo, po, 10 mg/kg, 72 h; remark: listed apart in the source
[26] = in vivo; conditions: beagle, dog, po, 1 mg/kg
[27] = in vivo; conditions: beagle, dog, po, 1 mg/kg; remark: listed apart in the source
[28] = in vivo; conditions: beagle, dog, po, 1 mg/kg; remark: listed apart in the source
[29] = in vivo; conditions: beagle, dog, po, 10 mg/kg
[30] = in vivo; conditions: beagle, dog, po, 100 mg/kg
[31] = in vivo; conditions: beagle, dog, po, 100 mg/kg; remark: listed apart in the source
[32] = in vivo; conditions: Sprague-Dawley, rat, iv, 0.3 mg/kg
[33] = in vivo; conditions: beagle, dog, iv, 0.1 mg/kg
[34] = in vivo; conditions: Sprague-Dawley, rat, po, 0.3 mg/kg
[35] = in vivo; conditions: beagle, dog, po, 0.1 mg/kg
[36] = in vivo; conditions: Sprague-Dawley, rat, po, 0.3 mg/kg; remark: listed apart in the source
[37] = in vivo; conditions: beagle, dog, po, 0.1 mg/kg; remark: listed apart in the source
[38] = in vivo; conditions: Sprague-Dawley, rat, po, 0.3 mg/kg; remark: listed apart in the source
[39] = in vivo; conditions: beagle, dog, po, 0.1 mg/kg; remark: listed apart in the source

Compound: COc1cc(Nc2ncc(CCc3c(F)c(OC)cc(OC)c3F)cn2)ccc1N1CCC(N2CCN(C)CC2)CC1
- CLint scaled ([1]; liver microsomes): 171 mL/min/kg
- IC50 [2]: 10000 nM

Compound: COc1cc(Nc2ncc(CCc3c(F)c(OC)cc(OC)c3F)cn2)ccc1N1CCC(N(C)C2CCN(C)CC2)CC1.Cl.Cl.Cl.Cl
- IC50 [3]: 24 nM
- CLint scaled ([1]; liver microsomes): 48 mL/min/kg
- IC50 [2]: > 1000 nM
- logD ([4]; 1-octanol/phosphate buffer): 2.5
- Papp at 2 h [5]: < 0.9 ×10⁻⁶ cm/s

Compound: COc1cc(OC)c(F)c(COc2cnc(Nc3cnn(CCO)c3)n[14cH]2)c1F
- Kp at 1 h [8]: 0.15
- Kp at 4 h [9]: 0.2
- Kp at 24 h [10]: 0.69

Compound: COc1cc(Nc2ncc(CCc3c(F)c(OC)cc(OC)c3F)cn2)ccc1N1CCN(C)CC1
- IC50 [3]: 18 nM
- CLint scaled ([1]; liver microsomes): 101 mL/min/kg
- logD ([4]; 1-octanol/phosphate buffer): 3
- Papp at 2 h [5]: > 30 ×10⁻⁶ cm/s

Compound: COc1cc(OC)c(F)c(COc2cnc(Nc3cnn(CCNC4CCN(C)CC4)c3)nc2)c1F.Cl.Cl.Cl
- IC50 [3]: 32 nM
- CLint scaled ([1]; liver microsomes): < 23 mL/min/kg
- IC50 [2]: 83000 nM
- logD ([4]; 1-octanol/phosphate buffer): 0.7
- Papp at 2 h [5]: < 1.4 ×10⁻⁶ cm/s
- concentration at 6 h [6]: 50.2 nM

Compound: COc1cc(OC)c(F)c(COc2cnc(Nc3cnn(CCN4CCNCC4)c3)nc2)c1F.Cl.Cl.Cl
- IC50 [3]: 13 nM
- CLint scaled ([1]; liver microsomes): < 23 mL/min/kg
- IC50 [2]: 89000 nM
- logD ([4]; 1-octanol/phosphate buffer): 0.2
- Papp at 2 h [5]: < 1.1 ×10⁻⁶ cm/s
- concentration at 6 h [6]: 305 nM

Compound: COc1cc(OC)c(F)c(COc2cnc(Nc3ccc(N4CCC(N5CCN(C)CC5)CC4)c(F)c3)nc2)c1F
- IC50 [3]: 5.5 nM
- CLint scaled ([1]; liver microsomes): 42 mL/min/kg
- IC50 [11]: < 1 nM

Compound: COc1cc(OC)c(F)c(COc2cnc(Nc3cnn(CCO)c3)nc2)c1F [ASP-5878]
- IC50 [3]: 11 nM
- CLint scaled ([1]; microsomes): < 23 mL/min/kg
- IC50 [2]: > 10000 nM
- logD ([4]; octanol/water): 2.3
- Papp at 2 h [5]: 13.3 ×10⁻⁶ cm/s
- concentration at 6 h [6]: 1570 nM
- Vd at 24 h [12]: 0.671 L/kg
- Vd at 72 h [13]: 0.665 L/kg
- half-life at 24 h [14]: 1.7 h
- half-life at 72 h [15]: 9.6 h
- AUC(0-inf) at 24 h [16]: 864 ng·h/mL
- AUC(0-inf) at 72 h [17]: 1260 ng·h/mL
- AUC(0-inf) at 24 h [18]: 657 ng·h/mL
- AUC(0-inf) at 72 h [19]: 1180 ng·h/mL
- inhibition at 13 min, 3 µM [20]: 9.1%
- inhibition at 13 min, 1 µM [21]: 7%
- inhibition at 13 min, 10 µM [22]: 9.1%
- Cmax [23]: 3540 ng/mL
- Cmax [24]: 9020 ng/mL
- AUC [25]: 39600 ng·h/mL
- AUC(0-t) at 72 h [26]: 5710 ng·h/mL
- Tmax at 72 h [27]: 1.3 h
- Cmax at 72 h [28]: 769 ng/mL
- Tmax at 72 h [29]: 3 h
- Tmax at 72 h [30]: 4.5 h
- AUC(0-t) at 72 h [31]: 111000 ng·h/mL
- clearance at 24 h [32]: 5.82 mL/min/kg
- clearance at 72 h [33]: 1.33 mL/min/kg
- Cmax at 24 h [34]: 196 ng/mL
- Cmax at 72 h [35]: 119 ng/mL
- Tmax at 24 h [36]: 1 h
- Tmax at 72 h [37]: 1 h
- bioavailability at 24 h [38]: 76.1%
- bioavailability at 72 h [39]: 94.2%

The next lines start with results.

- CLint scaled ([1]; liver microsomes): 40 mL/min/kg
- logD ([4]; 1-octanol/phosphate buffer): 3.3
- Papp at 2 h [5]: 11.2 ×10⁻⁶ cm/s
- concentration at 6 h [6]: 2790 nM
Compound: COc1cc(Nc2ncc(OCc3c(F)c(OC)cc(OC)c3F)cn2)ccc1N1CCC(N2CCN(C)CC2)CC1
- IC50 [3]: 13 nM
- IC50 [2]: > 3000 nM
- inhibition in vivo at 30 mg/kg [7]: 67%

- CLint scaled ([1]; liver microsomes): 39 mL/min/kg
- logD ([4]; 1-octanol/phosphate buffer): 3
- Papp at 2 h [5]: 16.2 ×10⁻⁶ cm/s
Compound: COc1cc(Nc2ncc(OCc3c(F)c(OC)cc(OC)c3F)cn2)ccc1N1CCN(C)CC1
- IC50 [2]: > 3000 nM

- CLint scaled ([1]; liver microsomes): < 23 mL/min/kg
- logD ([4]; 1-octanol/phosphate buffer): 3.8
- Papp at 2 h [5]: 16.8 ×10⁻⁶ cm/s
Compound: CCOc1cc(Nc2ncc(OCc3c(F)c(OC)cc(OC)c3F)cn2)ccc1N1CCC(N2CCN(C)CC2)CC1
- IC50 [2]: > 3000 nM

- CLint scaled ([1]; liver microsomes): 39 mL/min/kg
Compound: COc1cc(OC)c(F)c(COc2cnc(Nc3cnc(N4CCC(N5CCN(C)CC5)CC4)nc3)nc2)c1F

- CLint scaled ([1]; liver microsomes): 34 mL/min/kg
Compound: COc1cc(OC)c(F)c(COc2cnc(Nc3ccc(N4CCC(N5CCN(C)CC5)CC4)nc3)nc2)c1F

- CLint scaled ([1]; liver microsomes): 51 mL/min/kg
Compound: COc1cc(Nc2ncc(CCc3c(F)c(OC)cc(OC)c3F)cn2)ccc1N1CCN(C2CCN(C)CC2)CC1

- CLint scaled ([1]; liver microsomes): 26 mL/min/kg
Compound: COc1cc(Nc2ncc(OCc3c(F)c(OC)cc(OC)c3F)cn2)cnc1N1CCC(N2CCN(C)CC2)CC1

- CLint scaled ([1]; liver microsomes): 58 mL/min/kg
- logD ([4]; 1-octanol/phosphate buffer): 4.1
- Papp at 2 h [5]: 20.6 ×10⁻⁶ cm/s
Compound: COc1cc(OC)c(F)c(COc2cnc(Nc3ccc(N4CCC(N5CCN(C)CC5)CC4)c(C)c3)nc2)c1F
- IC50 [3]: 20 nM
